# According to patent US10821160B2, “L-asparaginase variants and fusion proteins with reduced L-glutaminase activity and enhanced stability” (priority 2016, dated 2020):
# Where “and” joins values, the source holds several entries; their conditions need not be identical. Equal values may be shown once.
# T1: Escherichia coli L-asparaginase, wild type (EcA-WT), SEQ ID NO:9 (Escherichia coli, UniProt P00805)
# T1 sequence (P00805 with tags, fused parts or gaps): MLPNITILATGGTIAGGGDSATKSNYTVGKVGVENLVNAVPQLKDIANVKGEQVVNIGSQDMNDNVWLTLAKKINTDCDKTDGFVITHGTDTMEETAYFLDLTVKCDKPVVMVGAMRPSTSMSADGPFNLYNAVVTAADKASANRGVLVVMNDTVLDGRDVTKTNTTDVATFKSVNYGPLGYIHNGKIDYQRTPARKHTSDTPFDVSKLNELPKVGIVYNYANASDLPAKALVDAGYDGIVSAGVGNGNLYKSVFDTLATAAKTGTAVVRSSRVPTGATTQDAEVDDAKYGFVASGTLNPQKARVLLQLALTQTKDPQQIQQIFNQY
# B1: Escherichia coli L-asparaginase, wild type (EcA-WT), SEQ ID NO:9 (Escherichia coli K-12) (protein)
# chain: T1 sequence (P00805 with tags, fused parts or gaps)
# Tests used:
# [1] = target: Erwinia chrysanthemi L-asparaginase (ErA) variant E63Q (ErA-E63Q), SEQ ID NO:2 (Dickeya chrysanthemi, UniProt P06608, E84Q); type: biochemical; parameters: lacking the first 21-amino acid residue signal peptide; His6-SUMO (yeast Smt3p) (N, cleaved yes); made in house; host or cells: E. coli BL21(DE3) C41
# Experimental: (§1) A conventional assay for determining L-glutaminase activity (Gella & Pascual (1982) Anal. Biochem. 127:322-5) was used with some modifications. The purified enzyme was mixed into a solution containing 50 mM Tris-HCl pH 8.5, 1 mg/mL BSA, 7 U GDH (Glutamate dehydrogenase, Sigma-Aldrich), 3 mM INT (Iodonitrotetrazolium chloride, Sigma-Aldrich), 100 mM PMS (Phenazine methosulfate, Sigma-Aldrich), and 100 mM NAD+. […] The latter, in the presence of NAD+ and under the catalysis of GDH, is broken further into α-ketoglutarate and ammonia. NADH produced by this second reaction, together with INT serve as inputs to the third reaction, where the formation of INT-formazan under the catalysis of PMS can be followed spectrophotometrically as an increase in absorbance at 500 nm. All reactions were carried out at 37° C. 1 IU of enzyme is defined as the amount of enzyme used to produce 1 μmole of product in 1 minute at 37° C.
# (§2) Using colorimetric enzyme-coupled assays, L-asparaginase and L-glutaminase activity of the enzymes was determined.
# [2] = target: T1, Escherichia coli L-asparaginase, wild type (EcA-WT), SEQ ID NO:9; experiment: L-glutaminase activity, GDH/INT coupled assay; type: biochemical
# Experimental: as §1
# [3] = tested on: Erwinia chrysanthemi L-asparaginase (ErA) variants ErA-E63Q, ErA-DM2 (A31I-E63Q) and ErA-DM1 (E63Q-S254N); experiment: L-glutaminase activity of the mutants as a group vs ErA-WT; type: biochemical
# Experimental: as §1, §2
# [4] = target: T2, Erwinia chrysanthemi L-asparaginase (ErA) variant A31I-E63Q (ErA-DM2), SEQ ID NO:4 (Dickeya chrysanthemi, UniProt P06608, A52I/E84Q); type: biochemical
# T2 construct: lacking the first 21-amino acid residue signal peptide; His6-SUMO (yeast Smt3p) (N, cleaved yes); made in house; host or cells: E. coli BL21(DE3) C41
# Experimental: as §1, §2
# [5] = target: T3, Erwinia chrysanthemi L-asparaginase (ErA) variant E63Q-S254N (ErA-DM1), SEQ ID NO:3 (Dickeya chrysanthemi, UniProt P06608, E84Q/S275N); type: biochemical
# T3 construct: lacking the first 21-amino acid residue signal peptide; His6-SUMO (yeast Smt3p) (N, cleaved yes); made in house; host or cells: E. coli BL21(DE3) C41
# Experimental: as §1, §2
# [6] = target: T4, Erwinia chrysanthemi L-asparaginase, wild type (ErA-WT), SEQ ID NO:1 (Dickeya chrysanthemi, UniProt P06608); experiment: L-glutaminase activity, GDH/INT coupled assay; type: biochemical
# T4 construct: lacking the first 21-amino acid residue signal peptide; His6-SUMO (yeast Smt3p) (N, cleaved yes); made in house; host or cells: E. coli BL21(DE3) C41
# Experimental: as §1, §2
# [7] = tested on: Erwinia chrysanthemi L-asparaginase (ErA) variant E63Q-S254Q (ErA-DM3), SEQ ID NO:5; experiment: L-glutaminase activity, GDH/INT coupled assay; type: biochemical; conditions: Gln, 37° C
# Experimental: as §1, §2
# [8] = target: T5, Erwinia chrysanthemi L-asparaginase (ErA) variant E63Q-S254Q (ErA-DM3), SEQ ID NO:5 (Dickeya chrysanthemi, UniProt P06608, E84Q/S275N); experiment: L-glutaminase activity, GDH/INT coupled assay; type: biochemical; conditions: Gln, head prints 50 mM
# T5 construct: lacking the first 21-amino acid residue signal peptide; His6-SUMO (yeast Smt3p) (N, cleaved yes); made in house; host or cells: E. coli BL21(DE3) C41
# Experimental: as §1, §2
# [9] = target: T6, Erwinia chrysanthemi L-asparaginase (ErA) variant E63Q-S254Q (ErA-DM3), SEQ ID NO:5 (Dickeya chrysanthemi, UniProt P06608, E84Q/S275Q); experiment: L-glutaminase activity, GDH/INT coupled assay; type: biochemical
# T6 construct: lacking the first 21-amino acid residue signal peptide; His6-SUMO (yeast Smt3p) (N, cleaved yes); made in house; host or cells: E. coli BL21(DE3) C41
# Experimental: as §1, §2
# [10] = target: T7, Erwinia chrysanthemi L-asparaginase (ErA) variant A31I-E63Q-S254N (ErA-TM1), SEQ ID NO:7 (Dickeya chrysanthemi, UniProt P06608, A52I/E84Q/S275N); type: biochemical
# T7 construct: lacking the first 21-amino acid residue signal peptide; His6-SUMO (yeast Smt3p) (N, cleaved yes); made in house; host or cells: E. coli BL21(DE3) C41
# Experimental: as §1
# [11] = target: Erwinia chrysanthemi L-asparaginase (ErA) variant A31I-E63Q-S254Q (ErA-TM2), SEQ ID NO:6 (Dickeya chrysanthemi, UniProt P06608, A52I/E84Q/S275Q)
# Experimental: as §1
# [12] = tested on: NC(=O)C[C@H](N)C(=O)O; experiment: purified protein, by the assay type; conditions: other: Asn, 37° C
# [13] = tested on: NC(=O)CC[C@H](N)C(=O)O; experiment: purified protein, by the assay type; conditions: other: Gln, 37° C, pH 8.5
# [14] = tested on: NC(=O)C[C@H](N)C(=O)O; experiment: purified protein, by the assay type; type: biochemical, Erwinia chrysanthemi; conditions: other: Asn, 37° C
# Experimental: (§3) L-asparaginase activity was determined using a continuous spectroscopic enzyme-coupled assay as previously described (Schalk, et al. (2014) J. Biol. Chem. 289:33175-33186). In brief, the assay measures the production of L-aspartate through the 1:1 oxidation of reduced NADH. The conversion of NADH to NAD^+ was measured spectrophotometrically as a decrease in absorbance at 340 nm at 37° C. All measurements were taken in triplicate. Rates were fit to the Michaelis-Menten equation using SIGMAPLOT software (Systat Software Inc).
# Using colorimetric enzyme-coupled assays, L-asparaginase and L-glutaminase activity of the enzymes was determined. […] Seventeen of the 18 mutants had reduced L-glutaminase activity (Table 7). However, for most of the mutants, this decrease was concomitant with a decline in the L-asparaginase activity. Using the criteria of (i) ≥60% retained L-asparaginase activity (relative to Erw-WT) and (ii) ≤5% L-glutaminase versus and L-asparaginase activity, mutants ErA-E63Q, ErA-S254P, ErA-A31I+E63Q and ErA-S254N+E63Q were selected for further study.
# [15] = tested on: NC(=O)C[C@H](N)C(=O)O; experiment: purified protein, by the assay type; type: biochemical, Erwinia chrysanthemi; conditions: other: Asn, 37° C; remark: listed apart in the source
# [16] = substrate: NC(=O)CC[C@H](N)C(=O)O; experiment: L-glutaminase activity, GDH/INT coupled assay; type: biochemical, Escherichia coli; conditions: other: Gln, 37° C, pH 8.5
# Experimental: as §1
# [17] = substrate: NC(=O)C[C@H](N)C(=O)O; experiment: L-asparaginase activity, continuous spectroscopic enzyme-coupled assay; type: biochemical, Escherichia coli; conditions: other: Asn, 37° C
# Experimental: as §3
# The parameters that define the asparagine-depleting power of such enzyme drugs are of significance. […] Enzymologists often combine these two parameters into a single value (kcat/Km) that is thought to represent the efficiency of the enzyme. […] Therefore, the ErA enzyme was selected for developing a variant with low L-glutaminase activity.
molecule,measurement,setting,value
"NC(=O)CC[C@H](N)C(=O)O [Gln, L-glutamine]",kobs @100 μM,[1]; 100 μM Gln,0.098 s⁻¹
same,kobs @0.5 mM,[1]; 0.5 mM Gln,0.74 s⁻¹
same,kobs @500 μM,[1]; 500 μM Gln,0.72 s⁻¹
same,kobs @1 mM,[1]; 1 mM Gln,2.16 s⁻¹
same,Km,"[1]; Gln, 37° C",3.86 ± 0.23 mM
same,kcat,"[1]; Gln, 37° C",8.33 ± 0.16 s⁻¹
same,kcat/Km,"[1]; Gln, 37° C",3.68 sec^−1mM^−1 and 3.68 × 10^−3 sec^−1μM^−1
same,kobs @100 μM,[2]; 100 μM Gln,0.047 s⁻¹
same,kobs @0.5 mM,[2]; 0.5 mM Gln,0.22 s⁻¹
same,kobs @500 μM,[2]; 500 μM Gln,0.22 s⁻¹
same,kobs @1 mM,[2]; 1 mM Gln,0.36 s⁻¹
same,kobs @ 50 mM,[2]; Gln,0.22 s⁻¹
same,kcat/Km,"[2]; Gln, 37° C",0.64 × 10^−3 sec^−1μM^−1
same,observed L-glutaminase rate reduced by,"[3]; 0.5 mM Gln, relative to ErA-WT",95-99%
same,L-glutaminase efficiency (kcat/Km) reduced by,"[3]; Gln, vs ErA-WT",20-400 fold
same,increased Km (fold higher compared ErA-WT),"[3]; Gln, vs ErA-WT",8-44 fold
same,reduced kcat (fold lower compared ErA-WT),"[3]; Gln, vs ErA-WT",3-9 fold
same,kobs @100 μM,[4]; 100 μM Gln,0.105 s⁻¹
same,kobs @0.5 mM,[4]; 0.5 mM Gln,0.83 s⁻¹
same,kobs @500 μM,[4]; 500 μM Gln,0.73 s⁻¹
same,kobs @1 mM,[4]; 1 mM Gln,2.20 s⁻¹
same,Km,"[4]; Gln, 37° C",2.73 ± 0.02 mM
same,kcat,"[4]; Gln, 37° C",6.01 ± 0.13 s⁻¹
same,kcat/Km,"[4]; Gln, 37° C",2.2 × 10^−3 sec^−1μM^−1
same,kobs @100 μM,[5]; 100 μM Gln,0.019 s⁻¹
same,kobs @0.5 mM,[5]; 0.5 mM Gln,0.11 s⁻¹
same,kobs @500 μM,[5]; 500 μM Gln,0.07 s⁻¹
same,kobs @1 mM,[5]; 1 mM Gln,0.18 s⁻¹
same,Km,"[5]; Gln, 37° C",15.8 ± 0.3 mM
same,kcat,"[5]; Gln, 37° C",2.93 ± 0.03 s⁻¹
same,kcat/Km,"[5]; Gln, 37° C",0.19 × 10^−3 sec^−1μM^−1
same,kobs @100 μM,[6]; 100 μM Gln,6.118 s⁻¹
same,kobs @0.5 mM,[6]; 0.5 mM Gln,15.87 s⁻¹
same,kobs @500 μM,[6]; 500 μM Gln,15.06 s⁻¹
same,kobs @1 mM,[6]; 1 mM Gln,19.22 s⁻¹
same,kcat/Km,"[6]; Gln, 37° C",74.56 × 10^−3 sec^−1μM^−1
same,kobs @ 50 mM,"[6]; Gln, head prints 50 mM",15.87 s⁻¹
same,Km,[7],84 mM
same,kobs @ 50 mM,[8],0.11 s⁻¹
same,kobs @100 μM,[9]; 100 μM Gln,0.009 s⁻¹
same,kobs @0.5 mM,[9]; 0.5 mM Gln,0.0226 s⁻¹
same,kobs @500 μM,[9]; 500 μM Gln,0.02 s⁻¹
same,kobs @1 mM,[9]; 1 mM Gln,0.19 s⁻¹
same,kobs @0.5 mM,[10]; 0.5 mM Gln,0.11 s⁻¹
same,kobs @1 mM,[10]; 1 mM Gln,0.33 s⁻¹
same,Km,"[10]; Gln, 37° C",28.2 mM
same,kcat,"[10]; Gln, 37° C",5.6 ± 0.2 s⁻¹
same,kcat/Km,"[10]; Gln, 37° C",0.19 × 10^−3 sec^−1μM^−1
same,kobs @100 μM,[11]; 100 μM Gln,0.0045 s⁻¹
same,kobs @0.5 mM,[11]; 0.5 mM Gln,0.0083 s⁻¹
same,kobs @500 μM,[11]; 500 μM Gln,0.0083 s⁻¹
same,Km,"[11]; Gln, 37° C",47.5 mM
same,kcat,"[11]; Gln, 37° C",1.836 ± 0.11 s⁻¹
same,kcat/Km,"[11]; Gln, 37° C",0.04 × 10^−3 sec^−1μM^−1
"Erwinia chrysanthemi L-asparaginase (ErA) variant E63Q (ErA-E63Q), SEQ ID NO:2 (Dickeya chrysanthemi; E84Q)",Km,[12],51 µM
"Erwinia chrysanthemi L-asparaginase (ErA) variant A31I-E63Q-S254Q (ErA-TM2), SEQ ID NO:6 (Dickeya chrysanthemi; A52I/E84Q/S275Q)",Km,[13],47.5 ± 0.7 mM
"Erwinia chrysanthemi L-asparaginase (ErA) variant A31I-E63Q (ErA-DM2), SEQ ID NO:4 (Dickeya chrysanthemi; A52I/E84Q)",Km,[14],37 µM
"Erwinia chrysanthemi L-asparaginase (ErA) variant E63Q-S254N (ErA-DM1), SEQ ID NO:3 (Dickeya chrysanthemi; E84Q/S275N)",Km,[15],185 µM
B1,Km,[16],1.38 ± 0.09 mM
same,kcat,[16],0.89 ± 0.01 s⁻¹
same,kcat/Km,[16],640 M⁻¹ s⁻¹
same,Km,[17],15.0 ± 0.5 µM
same,kcat,[17],44.4 ± 0.3 s⁻¹
same,kcat/Km,[17],2.96e+06 M⁻¹ s⁻¹
